Measured values reported in patent US11667631B2, “FGFR4 inhibitor, preparation method therefor, and applications thereof” (Jiangsu Hansoh Pharmaceutical Group Co., Ltd., priority 2016, dated 2023).
pIC50: −log10 of the molar value.

Experiments:
[1] = tested on: HuH-7 cells; test: Inhibition of HuH-7 cell proliferation (CellTiter-Glo); assay type: cell-based; conditions: Homo sapiens, Huh-7, 72 h, read-out: HuH-7 IC50
Method: In this experiment, the inhibitory effect of the compounds on HuH-7 cell proliferation was tested by a CellTiter-Glo method, and the half maximal inhibitory concentration (IC50) of the compounds on the activity of cell proliferation was determined.
1) A 96-well cell culture plate was seeded with 50˜100 μL of HuH-7 cell suspension at a density of 1˜5×10^4 cells/ml. The culture plate was incubated in an incubator for 16˜24 hours (37° C., 5% CO2).
(§1) 2) Different concentrations of the test compound in a gradient dilution were added to the cells in the culture plate. The culture plate was incubated in an incubator for 72 hours (37° C., 5% CO2).
3) 50˜100 μL of CellTiter-Glo reagent was added to each well. Then, the culture plate was shaken or left to stand for 5˜30 minutes at room temperature.
(§2) 4) The chemiluminescence signal values of each plate were determined by a microplate reader.
(§3) 5) The inhibition rates were calculated according to the chemiluminescence signal values.
(§4) 6) The IC50 of the compound was obtained by curve fitting according to the inhibition rates at different concentrations, and the cell activity of the specific example compounds is shown in Table 2.

[2] = target: FGFR1 kinase (Homo sapiens (Human), UniProt P11362); test: Enzymologic experiment of FGFR1 (TR-FRET); assay type: biochemical; conditions: FGFR1 kinase activity
FGFR1 kinase, sequence (P11362 22-822): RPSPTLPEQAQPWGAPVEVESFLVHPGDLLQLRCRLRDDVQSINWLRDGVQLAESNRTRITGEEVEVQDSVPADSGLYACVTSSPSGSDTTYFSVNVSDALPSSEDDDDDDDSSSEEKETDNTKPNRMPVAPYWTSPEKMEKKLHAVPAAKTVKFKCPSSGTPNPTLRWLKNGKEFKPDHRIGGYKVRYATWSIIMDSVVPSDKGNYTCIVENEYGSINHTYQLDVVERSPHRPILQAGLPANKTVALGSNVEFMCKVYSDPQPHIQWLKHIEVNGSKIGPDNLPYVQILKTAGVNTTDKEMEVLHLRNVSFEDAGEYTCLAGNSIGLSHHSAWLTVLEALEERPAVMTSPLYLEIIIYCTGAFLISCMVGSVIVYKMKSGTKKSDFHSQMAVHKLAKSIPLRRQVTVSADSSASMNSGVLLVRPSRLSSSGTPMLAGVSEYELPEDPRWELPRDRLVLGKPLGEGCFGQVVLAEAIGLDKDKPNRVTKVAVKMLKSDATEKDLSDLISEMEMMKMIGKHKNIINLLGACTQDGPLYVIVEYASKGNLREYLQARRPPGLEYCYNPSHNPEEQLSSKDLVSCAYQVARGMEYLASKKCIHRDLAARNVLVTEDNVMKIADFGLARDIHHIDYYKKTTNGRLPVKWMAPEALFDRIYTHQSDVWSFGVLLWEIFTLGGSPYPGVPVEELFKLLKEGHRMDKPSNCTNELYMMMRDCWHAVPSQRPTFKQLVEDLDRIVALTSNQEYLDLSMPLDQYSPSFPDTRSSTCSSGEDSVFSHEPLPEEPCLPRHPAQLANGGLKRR
Method: In this experiment, the inhibitory effect of the compounds on FGFR1 kinase activity was tested by a fluorescence resonance energy transfer (TR-FRET) method, and the half maximal inhibitory concentration (IC50) of the compounds on the FGFR1 kinase activity was determined.
1) 1˜5 μL of FGFR1 enzyme solution was added to a 384-well plate, and the final concentration of the enzyme was 0.1˜5 nM.
2) 1˜5 μL of diluted solution in gradient of the compound was added.
3) 1˜5 μL of a substrate mixture containing substrate polypeptide with a final concentration of 5˜50 nM and ATP with a final concentration of 10˜200 μM was added.
4) The mixture was incubated for 0.5˜3 hours at room temperature.
5) 10 μL of EDTA and a test solution comprising labeled antibody were added, and the plate was incubated for 1 hour at room temperature.
6) The fluorescence signal values of each plate were determined by a microplate reader at 665 nm.
7) The inhibition rates were calculated according to the fluorescence signal values.
8) The IC50 of the compound was obtained by curve fitting according to the inhibition rates at different concentrations, and the enzymatic activity of the specific example compounds is shown in Table 1.

[3] = tested on: SK-HEP-1 cells; test: Inhibition of SK-HEP-1 cell proliferation (CellTiter-Glo); assay type: cell-based; conditions: Homo sapiens, SK-HEP1, 72 h, read-out: SK-HEP-1 IC50
Method: In this experiment, the inhibitory effect of the compounds on SK-HEP-1 cell proliferation was tested by a CellTiter-Glo method, and the half maximal inhibitory concentration (IC50) of the compounds on the activity of cell proliferation was determined.
1) A 96-well cell culture plate was seeded with 50˜100 μL of SK-HEP-1 cell suspension at a density of 1˜5×10^4 cells/ml. The culture plate was incubated in an incubator for 16˜24 hours (37° C., 5% CO2).
as §1
(§5) 3) 50˜100 μL of CellTiter-Glo reagent were added to each well. Then, the culture plate was shaken or left to stand for 5˜30 minutes at room temperature.
as §2, §3, §4

[4] = tested on: Hep 3B cells; test: Inhibition of Hep 3B cell proliferation (CellTiter-Glo); assay type: cell-based; conditions: Homo sapiens, Hep3B, 72 h, read-out: Hep 3B IC50, Hep 3B cell proliferation, 72 hours, CellTiter-Glo
Method: In this experiment, the inhibitory effect of the compounds on Hep 3B cell proliferation was tested by a CellTiter-Glo method, and the half maximal inhibitory concentration (IC50) of the compounds on the activity of cell proliferation was determined.
1) A 96-well cell culture plate was seeded with 50˜100 μL of Hep 3B cell suspension at a density of 1˜5×10^4 cells/ml. The culture plate was incubated in an incubator for 16˜24 hours (37° C., 5% CO2).
as §1, §5, §2, §3

[5] = Pharmacokinetic (PK) analysis in rats; assay type: in vivo, Sprague Dawley (SD) rats; conditions: SD rats, single intragastric administration, 5 mg/kg; for Peak Time tmax: (sampling in hours); for AUC(0-t) / AUC(0-inf) / half-life / MRT / Cmax: Sprague-Dawley, rat, plasma, po; for AUC(0-t): read-out: Area Under Curve AUC0-t; for AUC(0-inf): read-out: Area Under Curve AUC0-∞; for half-life: read-out: Half-Time t1/2 (converted); for MRT: read-out: Mean Residence Time MRT; for Cmax: read-out: Plasma Concentration Cmax
Method: 1) 0.2 ml of intravenous blood was collected and placed in a K2EDTA test tube. The blood was centrifuged at room temperature at the speed of 1000˜3000×g for 5˜20 minutes to isolate the plasma, which was then stored at −80° C.
2) 160 μL of acetonitrile was added to 40 μL of plasma sample for precipitation, and then the mixture was centrifuged at the speed of 500˜2000×g for 5˜20 minutes.
3) 100 μL of treated solution was taken, and the concentration of the test compound was analyzed by LC/MS/MS. The LC/MS/MS analytical instrument was AB Sciex API 4000. • Liquid chromatography analysis: • Condition of Liquid chromatography: Shimadzu LC-20AD pump • Chromatographic column: phenomenex Gemiu 5 um C18 50×4.6 mm • Mobile phase: Solution A is 0.1% formic acid aqueous solution, and Solution B is acetonitrile • Flow rate: 0.8 mL/min • Elution time: 0-3.5 minutes, the eluent was used as follows: […]

Compound	pIC50 [1]	pIC50 [2]	pIC50 [3]	pIC50 [4]	Peak Time tmax [5]	AUC(0-t) [5]	AUC(0-inf) [5]	half-life [5]	MRT [5]	Cmax [5]
CO[C@@H]1CCCC1Oc1cc(NC(=O)N2CCCc3cc(CN4CCOCC4=O)c(C=O)nc32)ncc1C#N (stereo partly drawn) [Example 16, N-(5-Cyano-4-(((trans)-2-methoxycyclopentyl)oxy)pyridin-2-yl)-7-formyl-6-((3-carbonylmorpholino)methyl)-3,4-dihydro-1,8-naphthyridin-1(2H)-carboxamide]	7.88	< 5.00	< 5.00	7.98	2 h	5520 ng·h/mL	5610 ng·h/mL	1.02 h	2.96 h	1600 ng/mL
CO[C@@H]1CCC1Oc1cc(NC(=O)N2CCCc3cc(CN4CCOCC4=O)c(C=O)nc32)ncc1C#N (stereo partly drawn) [Example 61, N-(5-Cyano-4-trans-((1,2)-2-methoxycyclobutoxy)pyridin-2-yl)-7-formyl-6-((3-carbonylmorpholino)methyl)-3,4-dihydro-1,8-naphthyridin-1(2H)-carboxamide]	8.21	< 5.00	< 5.00	8.43	2 h	2110 ng·h/mL	2120 ng·h/mL	0.75 h	2.96 h	2640 ng/mL
COCC1(Nc2cc(NC(=O)N3CCCc4cc(CN5CCOCC5=O)c(C=O)nc43)ncc2C#N)CC1 [Example 11]	7.91	< 5.00	< 5.00	8.08	2 h	3890 ng·h/mL	3960 ng·h/mL	1.16 h	2.68 h	1540 ng/mL
CO[C@@H]1CCC[C@H]1Nc1cc(NC(=O)N2CCCc3cc(CN4CCOCC4=O)c(C=O)nc32)ncc1C#N [Example 60, N-(5-Cyano-4-(((1R,2R)-2-methoxycyclopentyl)amino)pyridin-2-yl)-7-formyl-6-((3-carbonylmorpholino)methyl)-3,4-dihydro-1,8-naphthyridin-1(2H)-carboxamide]	8.57	< 5.00	< 5.00	9.00	2 h	3770 ng·h/mL	3790 ng·h/mL	0.88 h	2.26 h	1300 ng/mL
CO[C@@H]1CCN(c2cc(NC(=O)N3CCCc4cc(CN5C(=O)OC[C@@H]5C)c(C=O)nc43)ncc2C#N)C1 [Example 38, N-(5-Cyano-4-((R)-3-methoxypyrrolidin-1-yl)pyridin-2-yl)-7-formyl-6-(((S)-4-methyl-2-carbonyloxazolidin-3-yl)methyl)-3,4-dihydro-1,8-naphthyridin-1(2H)-carboxamide]	7.93	< 5.00	< 5.00	7.88	2 h	2400 ng·h/mL	2540 ng·h/mL	1.38 h	3.91 h	2660 ng/mL
CO[C@H]1CCN(c2cc(NC(=O)N3CCCc4cc(CN5CCOC5=O)c(C=O)nc43)ncc2C#N)C1 [Example 40, (S)-N-(5-Cyano-4-(3-methoxypyrrolidin-1-yl)pyridin-2-yl)-7-formyl-6-((2-carbonyloxazolidin-3-yl)methyl)-3,4-dihydro-1,8-naphthyridin-1(2H)-carboxamide]	7.53	< 5.00	< 5.00	7.41	2 h	1080 ng·h/mL	1100 ng·h/mL	1.05 h	3.36 h	1560 ng/mL
CO[C@@H]1CCN(c2cc(NC(=O)N3CCCc4cc(CN5CCOC5=O)c(C=O)nc43)ncc2C#N)C1 [Example 41, (R)-N-(5-Cyano-4-(3-methoxypyrrolidin-1-yl)pyridin-2-yl)-7-formyl-6-((2-carbonyloxazolidin-3-yl)methyl)-3,4-dihydro-1,8-naphthyridin-1(2H)-carboxamide]	7.99	< 5.00	< 5.00	8.00	2 h	2880 ng·h/mL	2960 ng·h/mL	1.17 h	3.12 h	1920 ng/mL
COC1CCN(c2cc(NC(=O)N3CCCc4cc(CN5CCOCC5=O)c(C=O)nc43)ncc2C#N)C1 (centres unmarked) [Example 4, N-(5-Cyano-4-(3-methoxypyrrolidin-1-yl)pyridin-2-yl)-7-formyl-6-((3-carbonylmorpholino)methyl)-3,4-dihydro-1,8-naphthyridin-1(2H)-carboxamide]	7.74	< 5.00	< 5.00	8.60	2 h	8740 ng·h/mL	8740 ng·h/mL	0.61 h	3.07 h	3370 ng/mL
CO[C@H]1CCN(c2cc(NC(=O)N3CCCc4cc(CN5CCOCC5=O)c(C=O)nc43)ncc2C#N)C1 [Example 51, (S)-N-(5-Cyano-4-(3-methoxypyrrolidin-1-yl)pyridin-2-yl)-7-formyl-6-((3-carbonylmorpholino)methyl)-3,4-dihydro-1,8-naphthyridin-1(2H)-carboxamide]	7.56	< 5.00	< 5.00	7.60	2 h	3720 ng·h/mL	3730 ng·h/mL	1.15 h	3.84 h	1020 ng/mL
N#Cc1cnc(NC(=O)N2CCCc3cc(CN4CCOCC4=O)c(C=O)nc32)cc1NCCOC1CCCC1 [Example 5, N-(5-Cyano-4-((2-(cyclopentyloxy)ethyl)amino)pyridin-2-yl)-7-formyl-6-((3-carbonylmorpholino)methyl)-3,4-dihydro-1,8-naphthyridin-1(2H)-carboxamide]	7.46	< 5.00	< 5.00	8.09						
COC[C@@H](C)Oc1cc(NC(=O)N2CCCc3cc(CN4CCCCOC4=O)c(C=O)nc32)ncc1C#N [Example 35]	8.34	< 5.00	< 5.00	8.66						
